Data from PMC3016957, “Identification of Myotropic Neuropeptides from the Brain and Corpus Cardiacum-Corpus Allatum Complex of the Beetle, Zophobas atratus” (Journal of Insect Science, 2010).
“Also recorded” adds a separate entry of the source.

Columns and labels:
heart of T. molitor = conditions: cited from earlier work
Text: The most prominent ion signal (1257.8) in both the brain and CC/CA corresponds to leucomyosuppressin, a member of the FMRFamide family first characterized from the cockroach L. maderae ([Holman et al. 1986a]). […] These peptides are pleiotropic as their effects on insects include the modulation of muscle contractile activity ([Predel and Nachman 2001]; [Rosinski 1995]).

heart muscles in beetles = conditions: synthetic peptide; ref Rosinski 1995; cited from earlier work
Description: All HPLC fractions were re-suspended in 100 µl of T. molitor saline (274 mM NaCl, 19 mM KCl, 9 mM CaCl2, 5 mM glucose, and 5 mM HEPES, pH 7.0), to a concentration of 1 brain or CC/CA equivalent, and assayed in vitro using a semi-isolated Z. atratus heart prepared according to Gäde and Rosinski ([1990]). In the bioassay, the video microscopy technique and the computer-based method of data acquisition and analysis were used to study the action of the fractions on continuously perfused heart preparations as described previously ([Marciniak et al. 2008]). The activities of tested fractions are pre ... || An AKH (Tenmo-AKH: pELNFSPNWa) had previously been identified from the CC of both T. molitor and Z. atratus (formerly Z. rugipes) ([Gäde and Rosinski 1990]), whereas two AKHs (pELNFSTDWa and pELNFTPNWa) are present in T. castaneum ([Audsley and Weaver, 2008]; [Gäde et al 2008]). From mass analysis of Z. atratus CC, only AKH was identified by the precursor ions 1009.7 and 1025.7, which represent the Na^+ and K^+ adducts of Temno-AKH, and its sequence was confirmed by MALDI-PSD. The protonated form of AKH is not usually detected using MALDI-TOF MS ([Audsley and Weaver, 2003]). Fraction 31 from t ...

[1] = system: semi-isolated Z. atratus heart; test: semi-isolated heart bioassay (video microscopy, continuously perfused heart); design: species or system Zophobas atratus; conditions: synthetic peptide 1×10^-9 M in saline, semi-isolated adult Z. atratus heart, n = 3–8 (Figure 8)
Description: All HPLC fractions were re-suspended in 100 µl of T. molitor saline (274 mM NaCl, 19 mM KCl, 9 mM CaCl2, 5 mM glucose, and 5 mM HEPES, pH 7.0), to a concentration of 1 brain or CC/CA equivalent, and assayed in vitro using a semi-isolated Z. atratus heart prepared according to Gäde and Rosinski ([1990]). In the bioassay, the video microscopy technique and the computer-based method of data acquisition and analysis were used to study the action of the fractions on continuously perfused heart preparations as described previously ([Marciniak et al. 2008]). The activities of tested fractions are presented as percentage changes in the control frequency of the heart contraction.
Synthetic peptides were dissolved in saline to yield a stock solution of 1 mM and were stored at -30 °C. Working dilutions (1×10^-9 M) were made from the stock solution in saline.

[2] = system: semi-isolated Z. atratus heart; conditions: ref Skonieczna and Rosinski 2004; cited from earlier work
Text: The most prominent ion signal (1257.8) in both the brain and CC/CA corresponds to leucomyosuppressin, a member of the FMRFamide family first characterized from the cockroach L. maderae ([Holman et al. 1986a]).

For “PFCNAFTGCa [CCAP, crustacean cardioactive peptide]”, the “effect on contractions of the myocardium of T. molitor” value (heart of T. molitor; ref Furuya et al. 1993) is given as “stimulate contractions of the myocardium”.
For Proctolin, the “effect on beetle heart contractions” value (heart muscles in beetles) is listed as “stimulates contractions of the heart muscles”.
In the case of pETSFTPRLa [Lem-PK], the “stimulatory activity on the heart of T. molitor” value (heart of T. molitor; ref Rosinski 1995) is listed as “very little stimulatory activity”.
With “GRWGGFA [Trica-NVP-4 trunc, truncated NVP-like peptide-4 (GRWGGFA)]” the “chronotropic effect on heart contractile activity (in words)” value (“chronotropic effect” below) [1] was “no effect on heart activity” and the “chronotropic effect” value ([1]; listed as NVP-4 trunc.) was “no effect on heart contractile activity”.
For leucomyosuppressin [LMS], the “inhibition of heart contractile activity (percentage change in the control frequency of heart contraction)” value ([1]; means ± SEM) is listed as 30%, the “cardioinhibition in Z. atratus” value [2] is listed as “dose-dependent reversible cardioinhibition” and the “cardioinhibition in T. molitor” value (heart of T. molitor; ref Skonieczna and Rosinski 2004) is listed as “dose-dependent reversible cardioinhibition”.
With SPPFAPRLa [Pyrokinin 2] the “chronotropic effect” value [1] was “minor positive chronotropic effect” and the “chronotropic effect” value ([1]; listed as PK 2) was “neither synthetic PK 2 nor the corresponding HPLC fraction (25) of CC/CA extract are active”.
In the case of pELNFSPNWa [AKH], the “effect on beetle heart contractions” value (heart muscles in beetles) is listed as “positive chronotropic effects”.
In the case of pETSDDYGHLRFa [sulfakinin 1], the “chronotropic effect” value [1] is reported as “Neither sulfakinin 1 nor fraction 22 from the brain had any significant action; also recorded: no significant effects”.
